According to ChEMBL document CHEMBL1201862, “PubChem BioAssay data set” (2004):
Active and inactive are the calls of the source.

Key:
HEK293 = assay: cells; assay type: functional, cell-based; conditions: Homo sapiens
[1] = target: T1, Nuclear receptor subfamily 0 group B member 1 (Homo sapiens, UniProt P51843); assay: Luminescence-based cell-based high throughput dose response assay for inhibitors of the orphan nuclear receptor subfamily 0, group B, member 1 (DAX1; NR0B1). [Related pubchem assays (depositor defined):AID504766, AID504790]; assay type: functional
T1 sequence (P51843 whole entry): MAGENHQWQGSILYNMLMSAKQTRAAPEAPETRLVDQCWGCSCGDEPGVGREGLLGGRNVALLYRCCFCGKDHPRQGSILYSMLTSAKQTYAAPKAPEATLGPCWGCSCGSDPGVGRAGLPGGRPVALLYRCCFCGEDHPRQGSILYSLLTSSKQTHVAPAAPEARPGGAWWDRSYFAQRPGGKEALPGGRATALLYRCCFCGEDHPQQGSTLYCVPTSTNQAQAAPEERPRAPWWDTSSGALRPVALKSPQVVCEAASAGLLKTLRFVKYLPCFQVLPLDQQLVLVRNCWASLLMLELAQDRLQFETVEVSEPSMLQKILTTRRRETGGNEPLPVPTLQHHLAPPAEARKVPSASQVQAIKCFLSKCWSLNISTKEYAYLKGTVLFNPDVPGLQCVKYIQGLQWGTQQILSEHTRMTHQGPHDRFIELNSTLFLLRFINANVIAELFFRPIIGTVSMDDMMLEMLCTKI

[2] = target: T2, Sentrin-specific protease 7 (Homo sapiens, UniProt Q9BQF6); assay type: functional;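 note: Luminescence-based dose-response confirmation of ultra-high-throughput screening hits, measuring inhibition of SENP7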
T2 sequence (Q9BQF6 whole entry): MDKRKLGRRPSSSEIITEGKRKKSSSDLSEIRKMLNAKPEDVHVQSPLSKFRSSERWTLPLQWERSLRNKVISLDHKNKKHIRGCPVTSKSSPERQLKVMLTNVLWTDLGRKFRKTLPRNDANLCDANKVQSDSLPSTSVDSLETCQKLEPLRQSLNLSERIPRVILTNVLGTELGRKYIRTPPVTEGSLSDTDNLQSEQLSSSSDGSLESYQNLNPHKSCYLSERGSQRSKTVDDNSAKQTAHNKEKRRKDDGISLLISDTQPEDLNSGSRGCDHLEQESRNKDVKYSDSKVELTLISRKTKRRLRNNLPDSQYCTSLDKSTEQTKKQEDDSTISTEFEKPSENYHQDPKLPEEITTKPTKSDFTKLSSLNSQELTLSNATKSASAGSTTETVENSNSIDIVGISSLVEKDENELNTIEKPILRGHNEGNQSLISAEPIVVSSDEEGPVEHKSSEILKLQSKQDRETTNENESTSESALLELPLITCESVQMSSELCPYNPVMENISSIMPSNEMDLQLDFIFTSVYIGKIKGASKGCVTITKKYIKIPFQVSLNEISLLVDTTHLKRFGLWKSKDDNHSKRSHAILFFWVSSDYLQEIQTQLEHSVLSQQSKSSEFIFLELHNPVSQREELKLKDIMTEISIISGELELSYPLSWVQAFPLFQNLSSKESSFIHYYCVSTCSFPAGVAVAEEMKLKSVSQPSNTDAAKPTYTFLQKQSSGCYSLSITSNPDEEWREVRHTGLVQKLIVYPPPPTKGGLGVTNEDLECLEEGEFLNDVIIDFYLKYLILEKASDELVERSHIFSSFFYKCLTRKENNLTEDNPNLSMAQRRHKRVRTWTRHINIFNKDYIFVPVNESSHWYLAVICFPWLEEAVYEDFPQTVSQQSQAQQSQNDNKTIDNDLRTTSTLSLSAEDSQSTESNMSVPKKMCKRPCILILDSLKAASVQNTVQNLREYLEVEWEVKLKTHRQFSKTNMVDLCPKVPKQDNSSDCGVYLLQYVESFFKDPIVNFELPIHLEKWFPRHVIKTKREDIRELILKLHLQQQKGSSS

HeLa = assay: HeLa cell cytotoxicity, dose response, cytotoxicity control for MITF activator project, CellTiter-Glo luminescence, cherry-pick samples (AID 540259); assay type: functional, cell-based; conditions: Homo sapiens
[3] = target: T3, Sentrin-specific protease 6 (Homo sapiens, UniProt Q9GZR1); assay type: functional;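 note: Luminescence-based dose-response confirmatory assay of SENP6 inhibition, following up an ultra-high-throughput screen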
T3 sequence (Q9GZR1 whole entry): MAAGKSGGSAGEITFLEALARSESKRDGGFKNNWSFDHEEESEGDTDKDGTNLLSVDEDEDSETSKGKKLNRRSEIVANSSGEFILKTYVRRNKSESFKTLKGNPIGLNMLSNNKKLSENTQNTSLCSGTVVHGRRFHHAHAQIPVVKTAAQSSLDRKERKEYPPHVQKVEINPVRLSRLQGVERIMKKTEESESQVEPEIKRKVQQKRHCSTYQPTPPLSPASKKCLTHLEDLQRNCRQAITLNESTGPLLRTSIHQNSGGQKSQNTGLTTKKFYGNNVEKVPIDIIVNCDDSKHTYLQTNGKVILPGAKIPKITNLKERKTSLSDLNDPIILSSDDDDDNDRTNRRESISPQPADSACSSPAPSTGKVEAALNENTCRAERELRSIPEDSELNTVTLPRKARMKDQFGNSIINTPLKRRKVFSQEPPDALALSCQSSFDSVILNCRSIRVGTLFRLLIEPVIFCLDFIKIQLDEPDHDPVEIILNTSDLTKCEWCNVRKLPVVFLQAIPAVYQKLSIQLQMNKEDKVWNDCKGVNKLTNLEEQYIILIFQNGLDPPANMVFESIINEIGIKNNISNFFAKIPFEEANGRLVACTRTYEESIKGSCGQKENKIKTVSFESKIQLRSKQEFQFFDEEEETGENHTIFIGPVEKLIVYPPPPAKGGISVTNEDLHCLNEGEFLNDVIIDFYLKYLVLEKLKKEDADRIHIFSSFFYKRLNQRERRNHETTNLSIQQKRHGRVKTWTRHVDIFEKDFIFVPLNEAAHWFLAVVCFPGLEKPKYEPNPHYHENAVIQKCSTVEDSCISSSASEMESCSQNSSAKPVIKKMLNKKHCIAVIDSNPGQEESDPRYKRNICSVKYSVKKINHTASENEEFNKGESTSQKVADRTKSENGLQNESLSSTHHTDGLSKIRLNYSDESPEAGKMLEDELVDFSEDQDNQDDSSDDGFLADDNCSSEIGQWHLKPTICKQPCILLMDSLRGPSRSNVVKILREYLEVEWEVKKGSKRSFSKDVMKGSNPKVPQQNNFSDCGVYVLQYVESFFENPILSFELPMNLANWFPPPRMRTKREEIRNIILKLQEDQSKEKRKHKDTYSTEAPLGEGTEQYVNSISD

[4] = target: Voltage-gated inwardly rectifying potassium channel KCNH2 (Homo sapiens, UniProt Q12809); conditions: Potency;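 note: confirmatory quantitative high-throughput screen measuring inhibition of hERG channel activity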
Caspase-3 = target: T4, Caspase-3 (Homo sapiens, UniProt P42574); assay type: functional;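 note: Dose-response selectivity test against caspase-3 for candidate inhibitors of sentrin-specific proteases (SENPs)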
T4 sequence (P42574 whole entry): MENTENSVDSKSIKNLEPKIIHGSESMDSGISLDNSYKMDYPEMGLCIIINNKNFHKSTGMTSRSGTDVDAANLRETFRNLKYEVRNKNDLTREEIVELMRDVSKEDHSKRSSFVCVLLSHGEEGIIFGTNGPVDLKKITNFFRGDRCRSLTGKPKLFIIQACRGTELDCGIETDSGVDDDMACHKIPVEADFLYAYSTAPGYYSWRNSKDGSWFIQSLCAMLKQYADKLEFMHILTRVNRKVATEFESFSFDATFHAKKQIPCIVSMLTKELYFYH

[5] = target: T5, Sentrin-specific protease 8 (Homo sapiens, UniProt Q96LD8); assay type: functional;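 note: luminescence read-out of SENP8 inhibition, dose-response confirmation following an ultra-high-throughput screen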
T5 sequence (Q96LD8 whole entry): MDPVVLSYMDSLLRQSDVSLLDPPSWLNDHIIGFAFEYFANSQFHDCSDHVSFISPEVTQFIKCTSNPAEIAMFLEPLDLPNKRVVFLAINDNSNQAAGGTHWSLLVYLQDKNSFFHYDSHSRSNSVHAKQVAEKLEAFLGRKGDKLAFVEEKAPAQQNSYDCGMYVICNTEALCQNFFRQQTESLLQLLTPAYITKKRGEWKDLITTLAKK

[6] = NIH-3T3 fibroblast cytotoxicity, dose response, cytotoxicity control, cell-based, fluorescence, Alamar Blue, secondary assay (AID 2327); assay type: functional;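 note: NIH-3T3 mouse fibroblasts cultured with fluconazole at 8 µg/mL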
[7] = target: T6, Serine/threonine-protein phosphatase (Candida dubliniensis (strain CD36 / CBS 7987 / NCPF 3949 / NRRLY-17841) (Yeast), UniProt B9W6M3); assay: calcineurin pathway inhibitors in yeast reporter, dose response, S. cerevisiae, CDRE-lacZ, luminescence, secondary (AID 2388); assay type: functional, cell-based;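 note: yeast reporter cells carrying a calcineurin-responsive lacZ construct stimulated with calcium chloride; luminescent beta-galactosidase reporter signal in whole cells rather than isolated phosphatase activity; potency for inhibition where a drop in reporter signal means calcineurin blockade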
T6 sequence (B9W6M3 whole entry): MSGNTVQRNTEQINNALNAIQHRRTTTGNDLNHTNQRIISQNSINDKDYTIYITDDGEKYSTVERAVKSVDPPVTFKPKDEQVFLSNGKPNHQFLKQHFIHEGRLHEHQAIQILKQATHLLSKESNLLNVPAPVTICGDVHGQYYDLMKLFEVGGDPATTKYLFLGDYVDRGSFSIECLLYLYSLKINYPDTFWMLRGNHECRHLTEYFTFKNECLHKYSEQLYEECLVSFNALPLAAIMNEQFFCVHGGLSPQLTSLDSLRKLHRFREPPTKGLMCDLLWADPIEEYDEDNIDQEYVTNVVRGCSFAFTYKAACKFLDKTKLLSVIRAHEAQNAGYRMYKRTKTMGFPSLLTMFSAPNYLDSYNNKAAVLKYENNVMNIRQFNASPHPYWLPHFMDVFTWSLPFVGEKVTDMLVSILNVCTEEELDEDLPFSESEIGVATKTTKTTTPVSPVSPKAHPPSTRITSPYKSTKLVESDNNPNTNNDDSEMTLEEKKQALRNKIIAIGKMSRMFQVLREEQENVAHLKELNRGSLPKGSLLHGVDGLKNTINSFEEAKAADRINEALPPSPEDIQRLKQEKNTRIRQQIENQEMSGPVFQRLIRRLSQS

[8] = C. albicans growth with fluconazole, confirmation, fluorescence, retest (AID 2467); assay type: functional, cell-based
[9] = target: ATP-dependent molecular chaperone HSP82 (Candida albicans (strain WO-1) (Yeast), UniProt C4YTQ8); assay: loss of DOC-induced GRE-beta-galactosidase reporter signal, dose response, Hsp90 inhibitor project, S. cerevisiae, luminescence (AID 2400); assay type: functional, cell-based;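 note: beta-galactosidase luminescence from glucocorticoid response element reporter as proxy for Hsp90 function; inhibitor potency where signal loss means Hsp90 inhibition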
[10] = target: T7, Type-1 angiotensin II receptor (Homo sapiens, UniProt P30556); assay: AT1 receptor antagonists, dose response, selectivity assay for APJ receptor antagonist project, cell-based, uHTS hits (AID 463214); assay type: functional;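 note: antagonist potency against angiotensin II stimulated AT1 response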
T7 sequence (P30556 whole entry): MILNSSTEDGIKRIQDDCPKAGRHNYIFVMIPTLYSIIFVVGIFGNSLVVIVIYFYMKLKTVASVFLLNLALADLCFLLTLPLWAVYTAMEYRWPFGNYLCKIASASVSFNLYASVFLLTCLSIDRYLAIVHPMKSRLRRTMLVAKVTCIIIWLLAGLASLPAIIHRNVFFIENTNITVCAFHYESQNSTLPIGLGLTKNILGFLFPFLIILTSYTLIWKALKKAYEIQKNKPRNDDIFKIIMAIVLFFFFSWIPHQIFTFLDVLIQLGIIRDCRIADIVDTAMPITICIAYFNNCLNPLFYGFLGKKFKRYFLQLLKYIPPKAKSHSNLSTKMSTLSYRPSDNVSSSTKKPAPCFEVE

Beta-galactosidase = Beta-galactosidase (Escherichia coli, UniProt Q8VNN2); assay: PubChem AID 485352; assay type: functional
[11] = HEp-2 cell cytotoxicity, dose response, cytotoxicity control for RSV inhibitor project, HTS (AID 2410); assay type: functional; conditions: human respiratory syncytial virus
Vero = Vero cell cytotoxicity, cytotoxicity control for flavivirus capping enzyme inhibitors (AID 588742); assay type: functional; conditions: Chlorocebus sabaeus

Beta-galactosidase, sequence (Q8VNN2 whole entry): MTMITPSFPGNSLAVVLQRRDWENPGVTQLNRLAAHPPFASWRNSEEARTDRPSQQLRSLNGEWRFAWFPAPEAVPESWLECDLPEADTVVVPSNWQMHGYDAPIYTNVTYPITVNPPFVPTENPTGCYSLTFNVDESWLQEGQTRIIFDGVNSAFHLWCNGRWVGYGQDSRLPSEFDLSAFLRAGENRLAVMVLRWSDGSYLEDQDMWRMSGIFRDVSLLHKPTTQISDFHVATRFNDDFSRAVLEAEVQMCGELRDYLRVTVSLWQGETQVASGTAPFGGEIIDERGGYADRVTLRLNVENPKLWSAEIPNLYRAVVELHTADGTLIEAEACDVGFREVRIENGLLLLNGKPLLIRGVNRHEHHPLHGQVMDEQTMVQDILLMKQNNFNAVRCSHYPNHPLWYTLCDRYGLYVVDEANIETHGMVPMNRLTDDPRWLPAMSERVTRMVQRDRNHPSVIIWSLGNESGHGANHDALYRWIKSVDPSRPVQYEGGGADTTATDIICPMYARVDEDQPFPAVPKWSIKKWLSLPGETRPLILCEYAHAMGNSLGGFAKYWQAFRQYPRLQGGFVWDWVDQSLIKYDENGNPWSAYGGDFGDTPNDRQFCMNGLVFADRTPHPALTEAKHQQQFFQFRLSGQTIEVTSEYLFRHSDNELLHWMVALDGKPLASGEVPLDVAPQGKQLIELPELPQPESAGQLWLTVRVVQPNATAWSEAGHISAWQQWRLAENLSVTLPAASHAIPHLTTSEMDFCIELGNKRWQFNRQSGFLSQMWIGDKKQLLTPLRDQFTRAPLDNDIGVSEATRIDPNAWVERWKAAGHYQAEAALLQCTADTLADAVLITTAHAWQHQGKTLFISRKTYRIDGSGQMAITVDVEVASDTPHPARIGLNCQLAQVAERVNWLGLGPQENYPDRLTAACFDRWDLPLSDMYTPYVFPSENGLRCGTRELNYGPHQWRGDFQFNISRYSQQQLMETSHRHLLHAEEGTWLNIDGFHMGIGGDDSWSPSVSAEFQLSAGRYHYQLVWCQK
ATP-dependent molecular chaperone HSP82, sequence (C4YTQ8 whole entry): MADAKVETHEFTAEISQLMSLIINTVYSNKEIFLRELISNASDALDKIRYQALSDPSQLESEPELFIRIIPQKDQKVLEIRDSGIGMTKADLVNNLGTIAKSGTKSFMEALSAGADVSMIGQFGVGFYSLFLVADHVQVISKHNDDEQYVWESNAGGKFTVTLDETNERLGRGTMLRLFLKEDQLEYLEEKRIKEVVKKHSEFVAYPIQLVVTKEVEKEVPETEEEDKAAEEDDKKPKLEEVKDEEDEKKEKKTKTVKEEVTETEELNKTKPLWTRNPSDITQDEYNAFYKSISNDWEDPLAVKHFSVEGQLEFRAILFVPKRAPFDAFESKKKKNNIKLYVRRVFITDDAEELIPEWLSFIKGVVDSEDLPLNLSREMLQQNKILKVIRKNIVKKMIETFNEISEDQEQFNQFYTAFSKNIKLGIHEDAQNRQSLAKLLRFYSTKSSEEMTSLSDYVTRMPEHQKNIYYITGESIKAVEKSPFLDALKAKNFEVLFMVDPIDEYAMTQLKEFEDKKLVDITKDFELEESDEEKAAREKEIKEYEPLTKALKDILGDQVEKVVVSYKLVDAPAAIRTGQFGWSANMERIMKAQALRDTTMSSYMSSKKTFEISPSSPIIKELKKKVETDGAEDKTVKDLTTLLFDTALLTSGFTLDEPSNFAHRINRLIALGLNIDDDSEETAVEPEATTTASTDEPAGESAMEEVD
Voltage-gated inwardly rectifying potassium channel KCNH2, sequence (Q12809 whole entry): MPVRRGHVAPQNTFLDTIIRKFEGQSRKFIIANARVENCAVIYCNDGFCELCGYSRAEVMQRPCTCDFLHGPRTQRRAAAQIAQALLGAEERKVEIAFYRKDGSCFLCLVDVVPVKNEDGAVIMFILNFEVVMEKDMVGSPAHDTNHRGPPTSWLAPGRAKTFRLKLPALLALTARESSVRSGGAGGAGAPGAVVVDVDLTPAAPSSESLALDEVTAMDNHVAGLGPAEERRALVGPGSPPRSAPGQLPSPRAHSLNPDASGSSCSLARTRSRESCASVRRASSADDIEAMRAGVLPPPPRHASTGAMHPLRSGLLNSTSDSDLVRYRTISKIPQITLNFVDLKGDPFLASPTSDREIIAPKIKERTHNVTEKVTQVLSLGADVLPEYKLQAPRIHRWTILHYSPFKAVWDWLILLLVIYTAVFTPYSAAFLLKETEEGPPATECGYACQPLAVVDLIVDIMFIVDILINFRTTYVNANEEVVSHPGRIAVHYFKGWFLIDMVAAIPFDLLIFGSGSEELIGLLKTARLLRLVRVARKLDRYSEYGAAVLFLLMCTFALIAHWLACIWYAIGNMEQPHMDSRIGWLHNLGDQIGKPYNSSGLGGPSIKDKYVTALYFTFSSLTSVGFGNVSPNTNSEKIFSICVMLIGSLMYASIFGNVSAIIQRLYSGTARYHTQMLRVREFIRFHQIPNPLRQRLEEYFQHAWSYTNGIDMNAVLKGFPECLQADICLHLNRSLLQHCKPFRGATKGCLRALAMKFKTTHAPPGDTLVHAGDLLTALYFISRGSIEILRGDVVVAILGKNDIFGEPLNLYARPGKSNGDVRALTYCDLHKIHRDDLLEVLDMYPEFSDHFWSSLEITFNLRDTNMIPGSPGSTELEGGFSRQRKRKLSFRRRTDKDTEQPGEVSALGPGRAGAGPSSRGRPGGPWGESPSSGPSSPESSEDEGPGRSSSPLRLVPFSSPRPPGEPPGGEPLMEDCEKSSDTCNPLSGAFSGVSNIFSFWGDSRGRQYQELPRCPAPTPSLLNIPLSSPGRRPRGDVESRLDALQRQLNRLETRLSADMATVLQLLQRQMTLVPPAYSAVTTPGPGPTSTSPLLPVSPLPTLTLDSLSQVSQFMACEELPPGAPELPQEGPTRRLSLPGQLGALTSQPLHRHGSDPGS

SMILES: CCOC(=O)c1nn(-c2ccc(Cl)cc2)cc1O
- IC50 (HEK293): > 67.5 µM (inactive)
- IC50 [1]: > 67.5 µM (inactive)

SMILES: Cc1ccc2c(c1N)C(=O)c1ccccc1C2=O
- IC50 [2]: 4.33 µM (active)
- AC50 (HeLa): 36 µM (active)
- IC50 [3]: 42.3 µM (active)
- AC50 [4]: 35.5 µM (inconclusive)
- IC50 (Caspase-3): 11.8 µM (active)
- IC50 [5]: > 100 µM (inactive)

SMILES: CCOc1ccc(-n2c(=O)[nH]c3sc4c(c3c2=O)CCCC4)cc1
- IC50 (HEK293): > 67.6 µM (inactive)
- IC50 [1]: > 67.6 µM (inactive)

SMILES: COc1ccc(-n2nc(C(=O)NCC(=O)NCCC3=CCCCC3)c3ccccc3c2=O)c(OC)c1
- EC50 [6]: > 150 µM (inactive)
- EC50 [7]: > 180 µM (inactive)
- EC50 [8]: 0.469 µM (active)
- EC50 [9]: > 150 µM (inactive)

SMILES: O=C(CN1C(=O)C2C3C=CC(C3)C2C1=O)OCC(=O)c1ccc(Cl)c([N+](=O)[O-])c1 (stereo unspecified)
- IC50 [10]: 14.3 µM (active)
- EC50 (Beta-galactosidase): > 40 µM (inactive)

SMILES: O=C(CNc1ccccc1C(=O)O)c1ccccc1
- IC50 [10]: 7.51 µM (active)
- EC50 (Beta-galactosidase): > 40 µM (inactive)

SMILES: COc1ccccc1N1CCN(C(S)=Nc2ccc3nc(N4CCOCC4)cc(C)c3c2)CC1
- CC50 [11]: 39.1 µM (active)
- CC50 (Vero): > 40 µM (active)

SMILES: C/C(=N\NC(=O)c1nn(C)cc1Br)c1ccncc1
- IC50 (HEK293): > 67.6 µM (inactive)
- IC50 [1]: > 67.6 µM (inactive)

SMILES: Cc1nn(-c2ccccc2)c(C)c1C(=O)OC/C(O)=C(\C#N)c1nc2ccccc2[nH]1
- EC50 [6]: > 150 µM (inconclusive)
- EC50 [7]: > 180 µM (inactive)
- EC50 [8]: 0.764 µM (active)
- EC50 [9]: > 150 µM (inactive)
